In US20150105252A1, “SUBSTITUTED PYRAZOLES AS HERBICIDES” (E I DU PONT DE NEMOURS AND COMPANY, priority 2013, published 2015):

Assays:
rice = assay: Test B flood; type: in vivo, Oryza sativa; conditions: 250 g ai/ha, visual rating on 0 to 100 scale (0 no effect, 100 complete control), 13 to 15 days
In short: (§1)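 Plants were grown to the 2-leaf stage, then pots were flooded to 3 cm above the soil and compounds were applied directly into the paddy water. Water depth was held for the whole test; after 13 to 15 days in a greenhouse, injury was visually rated against untreated controls (0 = no effect, 100 = complete control).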

barnyardgrass = assay: Test B flood; type: in vivo, Echinochloa crus-galli; conditions: 250 g ai/ha, visual rating on 0 to 100 scale (0 no effect, 100 complete control), 13 to 15 days
In short: as §1

blackgrass = assay: Test C preemergence; type: in vivo, Alopecurus myosuroides; conditions: for Blackgrass plant response rating / Plant response rating, Blackgrass: preemergence; for Plant response rating, Blackgrass: 125 g ai/ha, scale 0 to 100, 0 = no effect, 100 = complete control
In short: (§2)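 Greenhouse pot test: preemergence application onto freshly seeded loam/sand mix, postemergence application onto seedlings (1–4 leaves, 2–18 cm) in peat-vermiculite substrate. Responses scored visually 13 to 15 days later relative to controls, where 0 means no effect and 100 means complete control; a dash indicates no result.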

wheat = assay: Test C preemergence; type: in vivo, Triticum aestivum; conditions: for Wheat plant response rating / Plant response rating, Wheat: preemergence; for Plant response rating, Wheat: 125 g ai/ha, scale 0 to 100, 0 = no effect, 100 = complete control
In short: as §2

lambsquarters = assay: Test C preemergence; type: in vivo, Chenopodium album; conditions: for Lambsquarters plant response rating / Plant response rating, Lambsquarters: preemergence; for Plant response rating, Lambsquarters: 125 g ai/ha, scale 0 to 100, 0 = no effect, 100 = complete control
In short: as §2

nutsedge, yellow [1] = assay: Test C preemergence; type: in vivo, Cyperus esculentus; conditions: for Nutsedge, Yellow plant response rating / Plant response rating, Nutsedge, Yellow: preemergence; for Plant response rating, Nutsedge, Yellow: 125 g ai/ha, scale 0 to 100, 0 = no effect, 100 = complete control
In short: as §2

ryegrass, Italian = assay: Test C postemergence; type: in vivo, Lolium multiflorum
In short: as §2

foxtail, giant = assay: Test C postemergence; type: in vivo, Setaria faberii; conditions: for Plant response rating (scale of 0 to 100 where 0 is no effect and 100 is complete control), Foxtail, Giant: Postemergence, 31 g ai/ha, visually evaluated after 13 to 15 days; for Foxtail, Giant plant response rating / Plant response rating, Foxtail, Giant: postemergence; for Foxtail, Giant plant response rating: 62 g ai/ha, scale 0 to 100
In short: as §2

johnsongrass = assay: Test C postemergence; type: in vivo, Sorghum halepense; conditions: for Plant response rating (scale of 0 to 100 where 0 is no effect and 100 is complete control), Johnsongrass: Postemergence, 31 g ai/ha, visually evaluated after 13 to 15 days; for Johnsongrass plant response rating / Plant response rating, Johnsongrass: postemergence; for Johnsongrass plant response rating: 62 g ai/ha, scale 0 to 100
In short: as §2

morningglory = assay: Test C postemergence; type: in vivo, Ipomoea coccinea; conditions: for Plant response rating (scale of 0 to 100 where 0 is no effect and 100 is complete control), Morningglory: Postemergence, 31 g ai/ha, visually evaluated after 13 to 15 days; for Morningglory plant response rating / Plant response rating, Morningglory: postemergence; for Morningglory plant response rating: 62 g ai/ha, scale 0 to 100
In short: as §2

nutsedge, yellow [2] = assay: Test C postemergence; type: in vivo, Cyperus esculentus; conditions: for Plant response rating (scale of 0 to 100 where 0 is no effect and 100 is complete control), Nutsedge, Yellow: Postemergence, 31 g ai/ha, visually evaluated after 13 to 15 days; for Nutsedge, Yellow plant response rating / Plant response rating, Nutsedge, Yellow: postemergence; for Nutsedge, Yellow plant response rating: 62 g ai/ha, scale 0 to 100
In short: as §2

pigweed = assay: Test C postemergence; type: in vivo, Amaranthus retroflexus; conditions: for Pigweed plant response rating / Plant response rating, Pigweed: postemergence; for Pigweed plant response rating: 62 g ai/ha, scale 0 to 100
In short: as §2

oat, wild = assay: Test C postemergence; type: in vivo, Avena fatua; conditions: for Plant response rating (scale of 0 to 100 where 0 is no effect and 100 is complete control), Oat, Wild: Postemergence, 31 g ai/ha, visually evaluated after 13 to 15 days; for Oat, Wild plant response rating / Plant response rating, Oat, Wild: postemergence; for Oat, Wild plant response rating: 62 g ai/ha, scale 0 to 100
In short: as §2

[3] = 31 g ai/ha, visual rating, scale 0 to 100 (0 no effect, 100 complete control), 13 to 15 days
[4] = 62 g ai/ha, scale 0 to 100 (0 no effect, 100 complete control), 13 to 15 days
[5] = 250 g ai/ha, scale 0 to 100, 0 is no effect, 100 is complete control
[6] = postemergence, 250 g ai/ha, scale 0 to 100 (0 no effect, 100 complete control)
[7] = postemergence, 125 g ai/ha, scale 0 to 100, 0 no effect, 100 complete control
[8] = 250 g ai/ha, scale 0 to 100 (0 no effect, 100 complete control)
[9] = 125 g ai/ha, scale 0 to 100, 0 no effect, 100 complete control
[10] = Postemergence, 31 g ai/ha, visually evaluated after 13 to 15 days

CCCNC(=O)c1cc(OCC)n(Cc2ccnc(C(F)(F)F)c2)n1 [Compound 187]
Plant response rating, Rice (rice): 45 | Plant response rating, Barnyardgrass (barnyardgrass): 55 | Blackgrass plant response rating (blackgrass; [3]): 90 | Blackgrass plant response rating (blackgrass; [4]): 90 | Plant response rating, Blackgrass (blackgrass; 13 to 15 days): 90 | Blackgrass plant response rating (blackgrass; [5]): 95 | Wheat plant response rating (wheat; [3]): 20 | Wheat plant response rating (wheat; [4]): 80 | Plant response rating, Wheat (wheat; 13 to 15 days): 90 | Wheat plant response rating (wheat; [5]): 90 | Lambsquarters plant response rating (lambsquarters; [3]): 100 | Lambsquarters plant response rating (lambsquarters; [4]): 100 | Plant response rating, Lambsquarters (lambsquarters; 13 to 15 days): 100 | Lambsquarters plant response rating (lambsquarters; [5]): 100 | Nutsedge, Yellow plant response rating (nutsedge, yellow [1]; [3]): 25 | Nutsedge, Yellow plant response rating (nutsedge, yellow [1]; [4]): 60 | Plant response rating, Nutsedge, Yellow (nutsedge, yellow [1]; 13 to 15 days): 85 | Nutsedge, Yellow plant response rating (nutsedge, yellow [1]; [5]): 98 | Plant response rating, Ryegrass, Italian (ryegrass, Italian; [6]): 30 | Plant response rating, Ryegrass, Italian (ryegrass, Italian; [7]): 5 | Plant response rating (scale of 0 to 100 where 0 is no effect and 100 is complete control), Foxtail, Giant (foxtail, giant): 5 | Foxtail, Giant plant response rating (foxtail, giant): 10 | Plant response rating, Foxtail, Giant (foxtail, giant; [8]): 70 | Plant response rating, Foxtail, Giant (foxtail, giant; [9]): 45 | Plant response rating (scale of 0 to 100 where 0 is no effect and 100 is complete control), Johnsongrass (johnsongrass): 0 | Johnsongrass plant response rating (johnsongrass): 5 | Plant response rating, Johnsongrass (johnsongrass; [8]): 25 | Plant response rating, Johnsongrass (johnsongrass; [9]): 5 | Plant response rating (scale of 0 to 100 where 0 is no effect and 100 is complete control), Morningglory (morningglory): 70 | Morningglory plant response rating (morningglory): 85 | Plant response rating, Morningglory (morningglory; [8]): 98 | Plant response rating, Morningglory (morningglory; [9]): 80 | Plant response rating (scale of 0 to 100 where 0 is no effect and 100 is complete control), Nutsedge, Yellow (nutsedge, yellow [2]): 5 | Nutsedge, Yellow plant response rating (nutsedge, yellow [2]): 5 | Plant response rating, Nutsedge, Yellow (nutsedge, yellow [2]; [8]): 10 | Plant response rating, Nutsedge, Yellow (nutsedge, yellow [2]; [9]): 5 | Pigweed plant response rating (pigweed): 50 | Plant response rating, Pigweed (pigweed; [8]): 75 | Plant response rating, Pigweed (pigweed; [9]): 60 | Plant response rating (scale of 0 to 100 where 0 is no effect and 100 is complete control), Oat, Wild (oat, wild): 10 | Oat, Wild plant response rating (oat, wild): 15 | Plant response rating, Oat, Wild (oat, wild; [8]): 50 | Plant response rating, Oat, Wild (oat, wild; [9]): 30

CCONC(=O)c1cc(CC)n(Cc2ccnc(OC(F)F)c2)n1 [Compound 131]
Plant response rating, Rice (rice): 40 | Plant response rating, Barnyardgrass (barnyardgrass): 50 | Plant response rating (scale of 0 to 100), Blackgrass (blackgrass; Preemergence, 250 g ai/ha): 98 | Blackgrass plant response rating (blackgrass; [3]): 40 | Blackgrass plant response rating (blackgrass; [4]): 80 | Plant response rating, Blackgrass (blackgrass; 13 to 15 days): 95 | Plant response rating (scale of 0 to 100), Wheat (wheat; Preemergence, 250 g ai/ha): 95 | Wheat plant response rating (wheat; [3]): 45 | Wheat plant response rating (wheat; [4]): 85 | Plant response rating, Wheat (wheat; 13 to 15 days): 50 | Plant response rating (scale of 0 to 100), Lambsquarters (lambsquarters; Preemergence, 250 g ai/ha): 100 | Lambsquarters plant response rating (lambsquarters; [3]): 98 | Lambsquarters plant response rating (lambsquarters; [4]): 100 | Plant response rating, Lambsquarters (lambsquarters; 13 to 15 days): 100 | Plant response rating (scale of 0 to 100), Nutsedge, Yellow (nutsedge, yellow [1]; Preemergence, 250 g ai/ha): 90 | Nutsedge, Yellow plant response rating (nutsedge, yellow [1]; [3]): 45 | Nutsedge, Yellow plant response rating (nutsedge, yellow [1]; [4]): 50 | Plant response rating, Nutsedge, Yellow (nutsedge, yellow [1]; 13 to 15 days): 95 | Plant response rating (scale of 0 to 100 where 0 is no effect and 100 is complete control), Ryegrass, Italian (ryegrass, Italian; [10]): 5 | Ryegrass, Italian plant response rating (ryegrass, Italian; postemergence, 62 g ai/ha, scale 0 to 100): 5 | Plant response rating, Ryegrass, Italian (ryegrass, Italian; [6]): 10 | Plant response rating, Ryegrass, Italian (ryegrass, Italian; [7]): 10 | Plant response rating (scale of 0 to 100 where 0 is no effect and 100 is complete control), Foxtail, Giant (foxtail, giant): 5 | Foxtail, Giant plant response rating (foxtail, giant): 10 | Plant response rating, Foxtail, Giant (foxtail, giant; [8]): 50 | Plant response rating, Foxtail, Giant (foxtail, giant; [9]): 40 | Plant response rating (scale of 0 to 100 where 0 is no effect and 100 is complete control), Johnsongrass (johnsongrass): 0 | Johnsongrass plant response rating (johnsongrass): 0 | Plant response rating, Johnsongrass (johnsongrass; [8]): 10 | Plant response rating, Johnsongrass (johnsongrass; [9]): 0 | Plant response rating (scale of 0 to 100 where 0 is no effect and 100 is complete control), Morningglory (morningglory): 35 | Morningglory plant response rating (morningglory): 55 | Plant response rating, Morningglory (morningglory; [8]): 70 | Plant response rating, Morningglory (morningglory; [9]): 65 | Plant response rating (scale of 0 to 100 where 0 is no effect and 100 is complete control), Nutsedge, Yellow (nutsedge, yellow [2]): 5 | Nutsedge, Yellow plant response rating (nutsedge, yellow [2]): 5 | Plant response rating, Nutsedge, Yellow (nutsedge, yellow [2]; [8]): 20 | Plant response rating, Nutsedge, Yellow (nutsedge, yellow [2]; [9]): 10 | Plant response rating (scale of 0 to 100 where 0 is no effect and 100 is complete control), Pigweed (pigweed; [10]): 35 | Pigweed plant response rating (pigweed): 65 | Plant response rating, Pigweed (pigweed; [8]): 98 | Plant response rating, Pigweed (pigweed; [9]): 90 | Plant response rating (scale of 0 to 100 where 0 is no effect and 100 is complete control), Oat, Wild (oat, wild): 5 | Oat, Wild plant response rating (oat, wild): 10 | Plant response rating, Oat, Wild (oat, wild; [8]): 10 | Plant response rating, Oat, Wild (oat, wild; [9]): 15
